{"source": "ChEMBL document CHEMBL1671713", "about": "“Synergy of caspofungin with human polymorphonuclear granulocytes for killing Candida albicans” (2010)", "type_in_all_cases": "functional", "key": {"Candida albicans [1]": {"test_system": "Candida albicans", "test": "Potentiation of human polymorphonuclear granulocytes-induced intracellular killing of Candida albicans at 2 ug/ml after 30 mins (Rvb =46%)"}, "Candida albicans [2]": {"test_system": "Candida albicans", "test": "Potentiation of human polymorphonuclear granulocytes-induced intracellular killing of Candida albicans at 2 ug/ml after 60 mins (Rvb =47%)"}, "Candida albicans [3]": {"test_system": "Candida albicans", "test": "Potentiation of human polymorphonuclear granulocytes-induced intracellular killing of Candida albicans at 2 ug/ml after 90 mins (Rvb =48%)"}, "Candida albicans [4]": {"test_system": "Candida albicans", "test": "Potentiation of human polymorphonuclear granulocytes-induced intracellular killing of Candida albicans at 3.2 ug/ml after 30 mins (Rvb =46%)"}, "Candida albicans [5]": {"test_system": "Candida albicans", "test": "Potentiation of human polymorphonuclear granulocytes-induced intracellular killing of Candida albicans at 3.2 ug/ml after 60 mins (Rvb =47%)"}, "Candida albicans [6]": {"test_system": "Candida albicans", "test": "Potentiation of human polymorphonuclear granulocytes-induced intracellular killing of Candida albicans at 3.2 ug/ml after 90 mins (Rvb =48%)"}, "Candida albicans [7]": {"test_system": "Candida albicans", "test": "Potentiation of human polymorphonuclear granulocytes-induced intracellular killing of Candida albicans at 8 ug/ml after 30 mins (Rvb =46%)"}, "Candida albicans [8]": {"test_system": "Candida albicans", "test": "Potentiation of human polymorphonuclear granulocytes-induced intracellular killing of Candida albicans at 8 ug/ml after 60 mins (Rvb =47%)"}, "Candida albicans [9]": {"test_system": "Candida albicans", "test": "Potentiation of human polymorphonuclear granulocytes-induced intracellular killing of Candida albicans at 8 ug/ml after 90 mins (Rvb =48%)"}, "Candida albicans [10]": {"test_system": "Candida albicans", "test": "Potentiation of human polymorphonuclear granulocytes-induced intracellular killing of compound pretreated Candida albicans for 1hr at 2 ug/ml after 30 mins (Rvb =46%)"}, "Candida albicans [11]": {"test_system": "Candida albicans", "test": "Potentiation of human polymorphonuclear granulocytes-induced intracellular killing of compound pretreated Candida albicans for 1hr at 2 ug/ml after 60 mins (Rvb =47%)"}, "Candida albicans [12]": {"test_system": "Candida albicans", "test": "Potentiation of human polymorphonuclear granulocytes-induced intracellular killing of compound pretreated Candida albicans for 1hr at 2 ug/ml after 90 mins (Rvb =48%)"}, "Candida albicans [13]": {"test_system": "Candida albicans", "test": "Potentiation of human polymorphonuclear granulocytes-induced intracellular killing of compound pretreated Candida albicans for 1hr at 3.2 ug/ml after 30 mins (Rvb =46%)"}, "Candida albicans [14]": {"test_system": "Candida albicans", "test": "Potentiation of human polymorphonuclear granulocytes-induced intracellular killing of compound pretreated Candida albicans for 1hr at 3.2 ug/ml after 60 mins (Rvb =47%)"}, "Candida albicans [15]": {"test_system": "Candida albicans", "test": "Potentiation of human polymorphonuclear granulocytes-induced intracellular killing of compound pretreated Candida albicans for 1hr at 3.2 ug/ml after 90 mins (Rvb =48%)"}, "Candida albicans [16]": {"test_system": "Candida albicans", "test": "Potentiation of human polymorphonuclear granulocytes-induced intracellular killing of compound pretreated Candida albicans for 1hr at 8 ug/ml after 30 mins (Rvb =46%)"}, "Candida albicans [17]": {"test_system": "Candida albicans", "test": "Potentiation of human polymorphonuclear granulocytes-induced intracellular killing of compound pretreated Candida albicans for 1hr at 8 ug/ml after 60 mins (Rvb =47%)"}, "Candida albicans [18]": {"test_system": "Candida albicans", "test": "Potentiation of human polymorphonuclear granulocytes-induced intracellular killing of compound pretreated Candida albicans for 1hr at 8 ug/ml after 90 mins (Rvb =48%)"}, "Candida albicans [19]": {"test_system": "Candida albicans", "test": "Potentiation of compound pretreated human polymorphonuclear granulocytes-induced intracellular killing of Candida albicans at 2 ug/ml after 30 mins (Rvb =46%)"}, "Candida albicans [20]": {"test_system": "Candida albicans", "test": "Potentiation of compound pretreated human polymorphonuclear granulocytes-induced intracellular killing of Candida albicans at 2 ug/ml after 60 mins (Rvb =47%)"}, "Candida albicans [21]": {"test_system": "Candida albicans", "test": "Potentiation of compound pretreated human polymorphonuclear granulocytes-induced intracellular killing of Candida albicans at 2 ug/ml after 90 mins (Rvb =48%)"}, "Candida albicans [22]": {"test_system": "Candida albicans", "test": "Potentiation of compound pretreated human polymorphonuclear granulocytes-induced intracellular killing of Candida albicans at 3.2 ug/ml after 30 mins (Rvb =46%)"}, "Candida albicans [23]": {"test_system": "Candida albicans", "test": "Potentiation of compound pretreated human polymorphonuclear granulocytes-induced intracellular killing of Candida albicans at 3.2 ug/ml after 60 mins (Rvb =47%)"}, "Candida albicans [24]": {"test_system": "Candida albicans", "test": "Potentiation of compound pretreated human polymorphonuclear granulocytes-induced intracellular killing of Candida albicans at 3.2 ug/ml after 90 mins (Rvb =48%)"}, "Candida albicans [25]": {"test_system": "Candida albicans", "test": "Potentiation of compound pretreated human polymorphonuclear granulocytes-induced intracellular killing of Candida albicans at 8 ug/ml after 30 mins (Rvb =46%)"}, "Candida albicans [26]": {"test_system": "Candida albicans", "test": "Potentiation of compound pretreated human polymorphonuclear granulocytes-induced intracellular killing of Candida albicans at 8 ug/ml after 60 mins (Rvb =47%)"}, "Candida albicans [27]": {"test_system": "Candida albicans", "test": "Potentiation of compound pretreated human polymorphonuclear granulocytes-induced intracellular killing of Candida albicans at 8 ug/ml after 90 mins (Rvb =48%)"}}, "data": [{"compound": "CC[C@H](C)C[C@H](C)CCCCCCCCC(=O)N[C@H]1C[C@@H](O)[C@@H](NCCN)NC(=O)[C@@H]2[C@@H](O)CCN2C(=O)[C@H]([C@H](O)CCN)NC(=O)[C@H]([C@H](O)[C@@H](O)c2ccc(O)cc2)NC(=O)[C@@H]2C[C@@H](O)CN2C(=O)[C@H]([C@@H](C)O)NC1=O", "note": "[CASPOFUNGIN]", "values": [{"measurement": "Activity", "setting": "Candida albicans [1]", "value": 71, "unit": "%"}, {"measurement": "Activity", "setting": "Candida albicans [2]", "value": 72, "unit": "%"}, {"measurement": "Activity", "setting": "Candida albicans [3]", "value": 75, "unit": "%"}, {"measurement": "Activity", "setting": "Candida albicans [4]", "value": 72, "unit": "%"}, {"measurement": "Activity", "setting": "Candida albicans [5]", "value": 75, "unit": "%"}, {"measurement": "Activity", "setting": "Candida albicans [6]", "value": 86, "unit": "%"}, {"measurement": "Activity", "setting": "Candida albicans [7]", "value": 74, "unit": "%"}, {"measurement": "Activity", "setting": "Candida albicans [8]", "value": 83, "unit": "%"}, {"measurement": "Activity", "setting": "Candida albicans [9]", "value": 83, "unit": "%"}, {"measurement": "Activity", "setting": "Candida albicans [10]", "value": 69, "unit": "%"}, {"measurement": "Activity", "setting": "Candida albicans [11]", "value": 69, "unit": "%"}, {"measurement": "Activity", "setting": "Candida albicans [12]", "value": 82, "unit": "%"}, {"measurement": "Activity", "setting": "Candida albicans [13]", "value": 63, "unit": "%"}, {"measurement": "Activity", "setting": "Candida albicans [14]", "value": 74, "unit": "%"}, {"measurement": "Activity", "setting": "Candida albicans [15]", "value": 78, "unit": "%"}, {"measurement": "Activity", "setting": "Candida albicans [16]", "value": 63, "unit": "%"}, {"measurement": "Activity", "setting": "Candida albicans [17]", "value": 66, "unit": "%"}, {"measurement": "Activity", "setting": "Candida albicans [18]", "value": 72, "unit": "%"}, {"measurement": "Activity", "setting": "Candida albicans [19]", "value": 72, "unit": "%"}, {"measurement": "Activity", "setting": "Candida albicans [20]", "value": 76, "unit": "%"}, {"measurement": "Activity", "setting": "Candida albicans [21]", "value": 82, "unit": "%"}, {"measurement": "Activity", "setting": "Candida albicans [22]", "value": 69, "unit": "%"}, {"measurement": "Activity", "setting": "Candida albicans [23]", "value": 84, "unit": "%"}, {"measurement": "Activity", "setting": "Candida albicans [24]", "value": 91, "unit": "%"}, {"measurement": "Activity", "setting": "Candida albicans [25]", "value": 79, "unit": "%"}, {"measurement": "Activity", "setting": "Candida albicans [26]", "value": 82, "unit": "%"}, {"measurement": "Activity", "setting": "Candida albicans [27]", "value": 94, "unit": "%"}]}]}
